Marks after values point to notes of the source that are not given here.
Columns and labels:
[1] = molecular target: T1, rat TRPV1 heterologously expressed in Chinese hamster ovary (CHO) cells (Rattus norvegicus, UniProt O35433); assay type: binding
[2] = molecular target: T1, rat TRPV1 heterologously expressed in Chinese hamster ovary (CHO) cells; assay type: cell-based

T1 sequence (O35433 whole entry): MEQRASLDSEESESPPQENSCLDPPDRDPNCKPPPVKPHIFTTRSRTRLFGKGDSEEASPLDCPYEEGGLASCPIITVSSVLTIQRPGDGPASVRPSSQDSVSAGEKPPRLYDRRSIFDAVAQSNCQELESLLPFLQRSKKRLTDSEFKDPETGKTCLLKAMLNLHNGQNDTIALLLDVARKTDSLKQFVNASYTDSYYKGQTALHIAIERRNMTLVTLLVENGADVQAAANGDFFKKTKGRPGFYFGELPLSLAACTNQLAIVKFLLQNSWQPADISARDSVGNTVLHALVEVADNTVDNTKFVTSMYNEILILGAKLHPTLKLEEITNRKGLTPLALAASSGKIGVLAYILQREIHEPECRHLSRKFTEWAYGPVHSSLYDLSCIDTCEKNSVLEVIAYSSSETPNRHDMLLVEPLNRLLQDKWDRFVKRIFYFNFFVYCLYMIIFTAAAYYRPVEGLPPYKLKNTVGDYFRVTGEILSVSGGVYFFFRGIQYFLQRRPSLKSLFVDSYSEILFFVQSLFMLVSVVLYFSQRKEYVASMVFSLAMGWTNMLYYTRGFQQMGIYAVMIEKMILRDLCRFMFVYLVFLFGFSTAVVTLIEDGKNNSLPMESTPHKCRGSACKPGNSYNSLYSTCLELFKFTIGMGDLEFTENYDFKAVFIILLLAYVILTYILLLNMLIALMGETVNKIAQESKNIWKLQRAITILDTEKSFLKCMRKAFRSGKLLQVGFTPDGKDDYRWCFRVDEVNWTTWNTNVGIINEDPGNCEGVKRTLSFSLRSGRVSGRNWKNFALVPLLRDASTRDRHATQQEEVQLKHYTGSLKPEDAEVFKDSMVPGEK

SMILES | enhancement in binding affinity compared to non-methylated parent [1] | fractional calcium uptake compared with that induced by 300 nM capsaicin [2] | also measured
COc1cc(C(C)C(=O)NCc2ccc(C(C)(C)C)cc2)ccc1O (stereo not shown) [8a] | 2 fold |  | enhancement in agonism compared to non-methylated parent [2]: 3 fold
CC(C(=O)NCc1ccc(C(C)(C)C)cc1)c1ccc(O)c(F)c1 (stereo not shown) [8b] | ca. 4.5 fold |  | 
CC(C(=O)NCc1ccc(C(C)(C)C)cc1)c1ccc(O)c(Cl)c1 (stereo not shown) [8c] | ~4 fold | (77%) ^a | 
CC(C)(C)c1ccc(CNC(=O)Cc2ccc(OCCN)c(F)c2)cc1 [10b] |  | (63%) ^a | 
CC(C)(C)c1ccc(CNC(=O)Cc2ccc(OCCN)c(Cl)c2)cc1 [10c] |  | (36%) ^a | 
CC(C(=O)NCc1ccc(C(C)(C)C)cc1)c1ccc(OCCN)c(F)c1 (stereo not shown) [14b] |  | (91%) ^a | 
CC(C(=O)NCc1ccc(C(C)(C)C)cc1)c1ccc(OCCN)c(Cl)c1 (stereo not shown) [14c] |  | (75%) ^a | 
CCCCCCCCCNC(=O)C(C)c1ccc(O)c(OC)c1 (stereo not shown) [compound 19] | 1.5–2 fold |  | enhancement in agonism compared to non-methylated parent [2]: 1.5–2 fold
COc1cc(C(C)C(=O)NCCCc2ccc(C)c(C)c2)ccc1O (stereo not shown) [compound 20] | 1.5–2 fold |  | enhancement in agonism compared to non-methylated parent [2]: 1.5–2 fold
COc1cc(C(C)C(=O)NCCCc2ccc(C)c(C)c2)ccc1OCCN (stereo not shown) [compound 22] |  |  | increase in receptor activity compared to DA-5018 [1]: ca. 2 fold
COc1cc(C(C)NC(=S)NCc2ccc(C(C)(C)C)cc2)ccc1O (stereo not shown) [compound 32] |  |  | reduction (loss) in binding affinity compared to non-methylated parent [1]: 3 fold
COc1cc(C(C)NC(=S)NCc2ccc(C(C)(C)C)cc2)ccc1OCCN (stereo not shown) [compound 36] |  |  | reduction (loss) in binding affinity compared to non-methylated parent [1]: 17 fold
